In ChEMBL document CHEMBL1201862, “PubChem BioAssay data set” (2004):
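How tested: cells in 96-well plates exposed to compound for 48 hours at five concentrations. GI50 is the concentration that inhibits growth by half.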 Active and inactive are the calls of the source. No stated cut-off is given here; in the data, active = GI50 up to about 1.1 µM and inactive = higher.

Experiments:
Test in all cases: NCI-60 cell line screen, 48 h
[1] = system: HL-60
[2] = system: T47D
[3] = system: HT-29
[4] = system: MCF7
[5] = system: SF-295
[6] = system: Hs-578T
[7] = system: DU-145
[8] = system: ACHN
[9] = system: MOLT-4
[10] = system: SK-OV-3
[11] = system: SK-MEL-28
[12] = system: MDA-MB-231
[13] = system: OVCAR-8
[14] = system: KM12
[15] = system: TK-10
[16] = system: IGROV-1
[17] = system: HOP-92
[18] = system: NCI-H226
[19] = system: SK-MEL-5
[20] = system: UACC-62
[21] = system: MDA-N
[22] = system: 786-0
[23] = system: CAKI-1
[24] = system: OVCAR-5
[25] = system: OVCAR-3
[26] = system: NCI-H460
[27] = system: COLO 205
[28] = system: K562
[29] = system: U-251
[30] = system: M14
[31] = system: HCT-15
[32] = system: A498
[33] = system: OVCAR-4
[34] = system: SNB-19
[35] = system: EKVX
[36] = system: SK-MEL-2
[37] = system: NCI/ADR-RES
[38] = system: SW-620
[39] = system: LOX IMVI
[40] = system: HCC 2998
[41] = system: Malme-3M
[42] = system: NCI-H23
[43] = system: BT-549
[44] = system: CCRF-CEM
[45] = system: NCI-H522
[46] = system: SR
[47] = system: SF-539
[48] = system: MDA-MB-435
[49] = system: SNB-75
[50] = system: UACC-257
[51] = system: RPMI-8226
[52] = system: HOP-62
[53] = system: A549
[54] = system: SN12C
[55] = system: HCT-116
[56] = system: PC-3
[57] = system: SF-268
[58] = system: UO-31

Measured: GI50

Cn1c2ccc(Cl)cc2c2ccc3c(c21)C(=O)C=CC3=O
inactive: [1] 8.49 µM | [2] > 10 µM | [3] > 10 µM | [4] > 10 µM | [5] > 10 µM | [6] > 10 µM | [7] > 10 µM | [8] > 10 µM | [9] 6.44 µM | [10] > 10 µM | [11] > 10 µM | [12] > 10 µM | [13] > 10 µM | [14] > 10 µM | [15] > 10 µM | [16] > 10 µM | [17] > 10 µM | [18] > 10 µM | [19] > 10 µM | [20] > 10 µM | [21] > 10 µM | [22] > 10 µM | [23] > 10 µM | [24] > 10 µM | [25] > 10 µM | [26] > 10 µM | [27] > 10 µM | [28] 9.14 µM | [29] > 10 µM | [30] > 10 µM | [32] > 10 µM | [33] > 10 µM | [34] > 10 µM | [35] > 10 µM | [36] > 10 µM | [37] > 10 µM | [38] > 10 µM | [39] > 10 µM | [40] > 10 µM | [41] > 10 µM | [42] > 10 µM | [43] > 10 µM | [44] 3.88 µM | [45] > 10 µM | [46] > 10 µM | [47] > 10 µM | [48] > 10 µM | [49] > 10 µM | [50] > 10 µM | [51] > 10 µM | [52] > 10 µM | [53] > 10 µM | [54] > 10 µM | [55] > 10 µM | [56] > 10 µM | [57] > 10 µM
> 10 µM: [31]

Oc1c(C2=N[C@H]3CCCC[C@@H]3N2)ccc2ccccc12
> 100 µM: [31]
inactive: [1] > 100 µM | [2] > 100 µM | [3] > 100 µM | [4] > 100 µM | [6] > 100 µM | [7] > 100 µM | [8] > 100 µM | [9] > 100 µM | [10] > 100 µM | [11] > 100 µM | [12] > 100 µM | [13] > 100 µM | [14] > 100 µM | [15] > 100 µM | [16] > 82 µM | [17] > 100 µM | [18] > 100 µM | [19] > 100 µM | [20] > 100 µM | [21] > 100 µM | [22] > 100 µM | [23] > 100 µM | [24] > 100 µM | [25] > 100 µM | [26] > 100 µM | [27] > 100 µM | [28] > 100 µM | [29] > 100 µM | [30] > 100 µM | [32] > 100 µM | [33] > 100 µM | [34] > 40.8 µM | [35] > 68.2 µM | [36] > 100 µM | [37] > 47.6 µM | [38] > 100 µM | [39] > 100 µM | [40] > 100 µM | [41] > 100 µM | [42] > 100 µM | [43] > 100 µM | [44] > 100 µM | [45] > 100 µM | [46] > 100 µM | [47] > 59.6 µM | [48] > 100 µM | [49] > 69.2 µM | [50] > 100 µM | [51] > 100 µM | [52] > 44.7 µM | [58] > 100 µM | [54] > 100 µM | [55] > 100 µM | [56] > 100 µM | [57] > 100 µM

Cc1nc2c(nc1C)-c1c(c3c(n1Cc1ccccc1)C(=O)CCC3)C(=O)C2=O
inactive: [1] 3.09 µM | [2] 4.06 µM | [3] 4.65 µM | [4] 2.29 µM | [5] 13.7 µM | [6] 4.2 µM | [7] 5.08 µM | [8] 2.07 µM | [9] 2.9 µM | [10] 18.9 µM | [11] 2.02 µM | [12] 3.61 µM | [13] 3.09 µM | [14] 2.09 µM | [15] 18.8 µM | [16] 2.58 µM | [17] 3.4 µM | [18] 21.4 µM | [19] 6.34 µM | [20] 14.5 µM | [21] 2.21 µM | [22] 3.42 µM | [23] 2.15 µM | [24] 3.74 µM | [25] 2.38 µM | [26] 4.62 µM | [27] 30.5 µM | [28] 2.96 µM | [29] 2.9 µM | [30] 4.42 µM | [32] 18.8 µM | [33] 1.81 µM | [34] 7.96 µM | [35] 5.69 µM | [36] 5.08 µM | [37] 3.84 µM | [38] 3.07 µM | [39] 3.14 µM | [40] 2.86 µM | [41] 3.35 µM | [42] 3.69 µM | [43] 2.86 µM | [44] 3.03 µM | [45] 2.86 µM | [46] 2.1 µM | [47] 2.33 µM | [48] 2.31 µM | [49] 3.48 µM | [50] 6.37 µM | [51] 1.84 µM | [52] 8.79 µM | [53] 3.93 µM | [58] 2.08 µM | [54] 2.42 µM | [55] 4.84 µM | [56] 5.27 µM | [57] 2.21 µM
3.15 µM: [31]
